Experimental data published in PubChem BioAssay (NCI).
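48-hour exposure; five concentrations; linearly interpolated endpoints. The concentration for full growth arrest is given as TGI.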

Tests used:
Test in all cases: growth of human tumour cells (NCI), 48 h
DU-145 prostate = tested on: DU-145 prostate
HOP-62 NSCLC = tested on: HOP-62 NSCLC
HT29 colon = tested on: HT29 colon
MDA-MB-231 breast = tested on: MDA-MB-231 breast
NCI-H460 lung = tested on: NCI-H460 lung
SK-MEL-2 melanoma = tested on: SK-MEL-2 melanoma
SK-OV-3 ovarian = tested on: SK-OV-3 ovarian
SN12C renal = tested on: SN12C renal
SW-620 colon = tested on: SW-620 colon
UO-31 renal = tested on: UO-31 renal

Structure (SMILES): Cc1cc2c(cc1-c1cc3c(cc1C)C(C(C)C)=C(O)C(=O)/C3=C\Nc1c(C)n(C)n(-c3ccccc3)c1=O)/C(=C/Nc1c(C)n(C)n(-c3ccccc3)c1=O)C(=O)C(O)=C2C(C)C
- TGI (DU-145 prostate): > 100 µM
- TGI (HOP-62 NSCLC): > 100 µM
- TGI (HT29 colon): > 100 µM
- TGI (MDA-MB-231 breast): > 100 µM
- TGI (NCI-H460 lung): > 100 µM
- TGI (SK-MEL-2 melanoma): > 100 µM
- TGI (SK-OV-3 ovarian): > 100 µM
- TGI (SN12C renal): > 100 µM
- TGI (SW-620 colon): > 100 µM
- TGI (UO-31 renal): > 100 µM

Structure (SMILES): NC(=O)c1ncn2c(=O)n(CCl)nnc12
- TGI (DU-145 prostate): > 100 µM
- TGI (HOP-62 NSCLC): > 100 µM
- TGI (HT29 colon): > 100 µM
- TGI (MDA-MB-231 breast): > 100 µM
- TGI (NCI-H460 lung): > 100 µM
- TGI (SK-MEL-2 melanoma): > 100 µM
- TGI (SK-OV-3 ovarian): > 100 µM
- TGI (SN12C renal): > 100 µM
- TGI (SW-620 colon): > 100 µM
- TGI (UO-31 renal): > 100 µM

Structure (SMILES): COc1nc2ccc(CNc3ccc(C(=O)O)cc3)cc2nc1OC
- TGI (DU-145 prostate): > 10 µM
- TGI (HOP-62 NSCLC): > 10 µM
- TGI (HT29 colon): > 10 µM
- TGI (MDA-MB-231 breast): > 10 µM
- TGI (NCI-H460 lung): > 10 µM
- TGI (SK-MEL-2 melanoma): > 10 µM
- TGI (SK-OV-3 ovarian): > 10 µM
- TGI (SN12C renal): > 10 µM
- TGI (SW-620 colon): > 10 µM

Structure (SMILES): COP(=O)(OC)c1ccc(NCc2cc(O)ccc2O)cc1
- TGI (DU-145 prostate): > 90.5 µM
- TGI (HOP-62 NSCLC): > 84.7 µM
- TGI (HT29 colon): 56.3 µM
- TGI (MDA-MB-231 breast): > 57.8 µM
- TGI (NCI-H460 lung): 45.4 µM
- TGI (SK-MEL-2 melanoma): > 87.8 µM
- TGI (SK-OV-3 ovarian): > 100 µM
- TGI (SN12C renal): > 70.6 µM
- TGI (SW-620 colon): > 100 µM
- TGI (UO-31 renal): 29.3 µM

Structure (SMILES): CCNc1cc2c3c(c1)CCCN3CCC2
- TGI (DU-145 prostate): > 100 µM
- TGI (HOP-62 NSCLC): 28.4 µM
- TGI (HT29 colon): 21.6 µM
- TGI (MDA-MB-231 breast): 22.4 µM
- TGI (NCI-H460 lung): 29.8 µM
- TGI (SK-MEL-2 melanoma): 30 µM
- TGI (SK-OV-3 ovarian): 37.3 µM
- TGI (SN12C renal): 8.63 µM
- TGI (SW-620 colon): 55.2 µM
- TGI (UO-31 renal): > 100 µM

Structure (SMILES): O=C1c2ccccc2-c2nnc(-c3ccc(Cl)cc3)cc21
- TGI (DU-145 prostate): > 10 µM
- TGI (HOP-62 NSCLC): > 10 µM
- TGI (HT29 colon): > 10 µM
- TGI (MDA-MB-231 breast): > 10 µM
- TGI (NCI-H460 lung): > 10 µM
- TGI (SK-MEL-2 melanoma): > 10 µM
- TGI (SK-OV-3 ovarian): > 10 µM
- TGI (SN12C renal): > 10 µM
- TGI (SW-620 colon): > 10 µM
- TGI (UO-31 renal): > 10 µM

Structure (SMILES): O=C(Cc1ccccc1)N=Nc1c(O)[nH]c2ccccc12
- TGI (DU-145 prostate): > 100 µM
- TGI (HOP-62 NSCLC): > 100 µM
- TGI (HT29 colon): > 100 µM
- TGI (MDA-MB-231 breast): > 100 µM
- TGI (NCI-H460 lung): > 100 µM
- TGI (SK-MEL-2 melanoma): > 100 µM
- TGI (SK-OV-3 ovarian): > 100 µM
- TGI (SN12C renal): > 100 µM
- TGI (UO-31 renal): > 100 µM

Structure (SMILES): CCOC(=O)C1=CC(C)(C(=O)OCC)Nc2c(nc(SC)n(C)c2=O)N1 (stereo unspecified)
- TGI (DU-145 prostate): > 10 µM
- TGI (HOP-62 NSCLC): > 10 µM
- TGI (HT29 colon): > 10 µM
- TGI (MDA-MB-231 breast): > 10 µM
- TGI (NCI-H460 lung): > 10 µM
- TGI (SK-MEL-2 melanoma): > 10 µM
- TGI (SK-OV-3 ovarian): > 10 µM
- TGI (SN12C renal): > 10 µM
- TGI (SW-620 colon): > 10 µM
- TGI (UO-31 renal): > 10 µM

Structure (SMILES): COC(=O)c1c(O)ccc2c1c1c(n2Cc2ccccn2)C(=O)c2ccccc2C1=O
- TGI (DU-145 prostate): > 100 µM
- TGI (HOP-62 NSCLC): 77.7 µM
- TGI (HT29 colon): 17.4 µM
- TGI (MDA-MB-231 breast): > 100 µM
- TGI (NCI-H460 lung): > 100 µM
- TGI (SK-MEL-2 melanoma): > 100 µM
- TGI (SK-OV-3 ovarian): 61.1 µM
- TGI (SN12C renal): > 100 µM
- TGI (UO-31 renal): > 100 µM

Structure (SMILES): Clc1ccc2nc(CC3CCCC3)[nH]c2c1
- TGI (DU-145 prostate): 54.6 µM
- TGI (HOP-62 NSCLC): 32.7 µM
- TGI (HT29 colon): 33.5 µM
- TGI (MDA-MB-231 breast): 43.6 µM
- TGI (NCI-H460 lung): 46.9 µM
- TGI (SK-MEL-2 melanoma): 41.2 µM
- TGI (SK-OV-3 ovarian): 49.1 µM
- TGI (SN12C renal): 36.8 µM
- TGI (SW-620 colon): > 100 µM
